# Source: US12037324B2, “Biarylmethyl heterocycles” (Université de Montréal, priority 2016, dated 2024)
# Where two headings read alike, the source gives them in different places.
# Tests used:
# Format in all cases: cell-based
# hAT1R [1] = target: T1, hAT1R (Homo sapiens, UniProt P30556); test: BRET Gq biosensor assay, agonist response, HEK293 cells; settings: section of the 42nd table directly before the BRET P63 section
# T1 sequence (P30556 1-359): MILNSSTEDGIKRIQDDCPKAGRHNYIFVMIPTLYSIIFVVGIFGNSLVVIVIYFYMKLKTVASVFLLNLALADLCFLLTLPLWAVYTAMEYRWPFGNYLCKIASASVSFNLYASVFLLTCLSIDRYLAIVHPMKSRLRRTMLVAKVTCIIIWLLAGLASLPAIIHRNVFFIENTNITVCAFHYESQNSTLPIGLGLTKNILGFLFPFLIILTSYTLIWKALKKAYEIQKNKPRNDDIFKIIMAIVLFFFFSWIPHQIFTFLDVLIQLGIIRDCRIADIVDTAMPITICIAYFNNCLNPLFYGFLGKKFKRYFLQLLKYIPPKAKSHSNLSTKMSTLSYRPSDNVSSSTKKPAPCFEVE
# In short: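 HEK293 cells co-transfected with signal-peptide-optimized hAT1R plus Gαq-Rluc, Gβ1 and GFP-Gγ1, assayed 48 h later in Tyrode's buffer pH 7.4. Coelenterazine (2 μM final) added, then compound; BRET2 (515/410 nm) read after 5 min at room temperature. EC50 by 4-parameter fit, normalized to unstimulated (0%) and maximal AngII (100%).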
# hAT1R [2] = target: T1, hAT1R; test: BRET β-arrestin2 biosensor assay, higher receptor expression (hAT1R 5 ng/well), HEK293 cells; settings: for EC50: High AT1R Expression
# AGTR1 = target: T2, AGTR1 (Homo sapiens, UniProt P30556); test: DiscoveRx β-arrestin2 recruitment assay (enzyme complementation, Pathunter CHO-K1 AGTR1 β-arrestin cell line)
# T2 construct: host or cells: Pathunter CHO-K1 AGTR1 β-arrestin cell line (CHO-K1)
# T2 sequence (P30556 1-359): T1 sequence (P30556 1-359)
# In short: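 CHO-K1 cells expressing AGTR1 with β-arrestin2 enzyme-complementation reporter, plated 14-16 h ahead in 1% serum medium, then exposed to compounds for 90 min at 37° C. Chemiluminescence read after 1 h detection. EC50 (agonist) or IC50 (antagonist) from 4-parameter logistic fit; activity as percentage of All maximal effect.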
# [3] = DiscoveRx β-arrestin2 recruitment
# [4] = DiscoveRx β-arrestin2 recruitment, maximal response
SMILES,EC50 (hAT1R [1]),BRET β-Arrestin2 High AT1R Expression Ymax (%) (hAT1R [2]),EC50 (hAT1R [2]),EC50 (AGTR1; [3]),DiscoveRx β-arrestin2 Ymax (%) (AGTR1; [4]),DiscoveRx β-arrestin2 Ymax (%) (AGTR1; [3]),EC50 (AGTR1)
CCCCC(=O)N(Cc1ccc(-c2cc(-c3ccccc3)ccc2-c2nn[nH]n2)cn1)C1(C(=O)O)CCCCC1 [Example 274],1490 nM,82.5%,279 nM,251 nM,37.5%,–,–
CCCCc1ncc(C(=O)N2CCCC2)n1Cc1ccc(-c2cc(-c3ccccc3)ccc2-c2nn[nH]n2)cc1 [Example 347],242 nM,48.8%,172 nM,57.2 nM,26.8%,–,–
"CCCc1nc(CC)c(C(=O)OCC)n1Cc1ccc(-c2cc(-c3ccccc3)ccc2-c2nn[nH]n2)cc1 [Example 395, ethyl 1-((6′-(2H-tetrazol-5-yl)-[1,1′:3′,1″-terphenyl]-4-yl)methyl)-4-ethyl-2-propyl-1H-imidazole-5-carboxylate]",12.7 nM,92.4%,20.4 nM,16.1 nM,54.1%,–,–
"CCCCC1=NC2(CCCC2)C(=O)N1Cc1ccc(-c2cc(-c3ccccc3)ccc2-c2nn[nH]n2)nc1 [Example 451, 3-((6-(4-(1H-Tetrazol-5-yl)-[1,1′-biphenyl]-3-yl)pyridin-3-yl)methyl)-2-butyl-1,3-diazaspiro[4.4]non-1-en-4-one]",4110 nM,44.8%,13700 nM,23.3 nM,–,11.4%,–
CCCCC(=O)N(Cc1ccc(-c2cc(Oc3cccnc3)ccc2-c2nn[nH]n2)cc1)[C@H](C(=O)O)C(C)C [Example 436],> 100000 nM,58.0%,13600 nM,993 nM,–,31.2%,–
"CCCc1nc(C(C)(C)O)c(C(=O)O)n1Cc1ccc(-c2cc(-c3ccccc3)ccc2-c2nn[nH]n2)cc1 [Example 402, sodium 1-((6′-(2H-tetrazol-5-yl)-[1,1′:3′,1″-terphenyl]-4-yl)methyl)-4-(2-hydroxypropan-2-yl)-2-propyl-1H-imidazole-5-carboxylate]",64.9 nM,77.8%,17.9 nM,9.9 nM,57.0%,–,–
CCCCC(=O)N(Cc1ccc(-c2cc(N3CC(C)(C)c4ccccc43)ccc2-c2nn[nH]n2)cc1)[C@H](C(=O)O)C(C)C [Example 450],5260 nM,77.6%,308 nM,479 nM,–,23.1%,> 100000 nM
CCCCC(=O)N(Cc1ccc(-c2cc(-c3ccccc3)ccc2-c2nn[nH]n2)cn1)[C@H](C(=O)O)C(C)C [Example 431],910 nM,92.7%,1590 nM,194 nM,–,26.0%,–
"CCCCC(=O)N(Cc1ccc(-c2cc(Oc3ccccc3)ccc2-c2nn[nH]n2)cc1)[C@H](C(=O)O)C(C)C [Example 435, (S)-3-Methyl-2-(N-((5′-phenoxy-2′-(2H-tetrazol-5-yl)-[1,1′-biphenyl]-4-yl)methyl)pentanamido)butanoic acid]",> 100000 nM,12.3%,305 nM,1410 nM,–,19.1%,–
"CCCCC(=O)N(Cc1ccc(-c2cc(-c3ccccc3)ccc2-c2noc(=O)[nH]2)cc1)C1(C(=O)OC)CCCCC1 [Example 280, Methyl 1-(N-((6′-(5-oxo-4,5-dihydro-1,2,4-oxadiazol-3-yl)-[1,1′:3′,1″-terphenyl]-4-yl)methyl)pentanamido)cyclohexanecarboxylate]",2870 nM,75.7%,699 nM,904 nM,35.2%,–,–
CCCCC(=O)N(Cc1ccc(-c2cc(-c3ccc4ncccc4c3)ccc2-c2nn[nH]n2)cc1)C1(C(=O)O)CCCCC1 [Example 292],> 100000 nM,36.5%,72.2 nM,177 nM,32.1%,–,–
CCCCc1ncc(C(=O)N[C@@H](CC)C2CC2)n1Cc1ccc(-c2cc(-c3ccccc3)ccc2-c2nn[nH]n2)cc1 [Example 369],173 nM,73.8%,73.3 nM,174 nM,30.9%,–,–
CCCCC(=O)N(Cc1ccc(-c2cc(-c3ccccc3)ccc2-c2nn[nH]n2)nc1)[C@H](C(=O)O)C(C)C [Example 430],275 nM,78.9%,70.4 nM,33.2 nM,–,55.2%,–
CCCCc1ncc(C(=O)NCC(F)F)n1Cc1ccc(-c2cc(-c3ccccc3)ccc2-c2nn[nH]n2)cc1 [Example 364],119 nM,79.4%,50.5 nM,23.2 nM,30.3%,–,–
CCCCC(=O)N(Cc1ccc(-c2cc(-c3ccc(NC(C)=O)cc3)ccc2-c2nn[nH]n2)cc1)C1(C(=O)O)CCCCC1 [Example 291],> 100000 nM,9.6%,1650 nM,134 nM,10.0%,–,–
CCCCc1ncc(C(=O)NCCC2CC2)n1Cc1ccc(-c2cc(-c3ccccc3)ccc2-c2nn[nH]n2)cc1 [Example 357],46.3 nM,72.5%,23.4 nM,19.6 nM,41.8%,–,–
CCCCC(=O)N(Cc1ccc(-c2cc(-c3ccccc3)ccc2-c2noc(=O)[nH]2)cc1)C1(C(=O)O)CCCCC1 [Example 281],232 nM,93.1%,10.5 nM,41.6 nM,47.4%,–,–
"CCCCc1ncc(-c2nnc(C)o2)n1Cc1ccc(-c2cc(-c3ccccc3)ccc2-c2nn[nH]n2)cc1 [Example 413, 2-(1-((6′-(2H-tetrazol-5-yl)-[1,1′:3′,1″-terphenyl]-4-yl)methyl)-2-butyl-1H-imidazol-5-yl)-5-methyl-1,3,4-oxadiazole]",351 nM,47.5%,55.6 nM,21.8 nM,16.3%,–,–
"CCCCC(=O)N(Cc1ccc(-c2cc(-c3ccccc3)ccc2-c2nn[nH]n2)cc1)C(C)(C)C(=O)O [Example 268, 2-(N-((6′-(2H-Tetrazol-5-yl)-[1,1′:3′,1″-terphenyl]-4-yl)methyl)pentanamido)-2-methylpropanoic acid]",1090 nM,73.8%,1030 nM,628 nM,39.8%,–,–
"CCCCc1nc(Cl)c(C(N)=O)n1Cc1ccc(-c2cc(-c3ccccc3)ccc2-c2nn[nH]n2)cc1 [Example 393, 1-((6′-(2H-tetrazol-5-yl)-[1,1′:3′,1″-terphenyl]-4-yl)methyl)-2-butyl-4-chloro-1H-imidazole-5-carboxamide]",48.8 nM,86.1%,12 nM,9.1 nM,41.2%,–,–
CCCCC(=O)N(Cc1ccc(-c2cc(-c3ccccc3)ccc2-c2nn[nH]n2)cc1)C1(C(=O)O)CCC1 [Example 270],4680 nM,74.3%,12900 nM,6550 nM,28.6%,–,–
